Source: US20240174691A1, “PYRIMIDINE-FUSED CYCLIC COMPOUND, PREPARATION METHOD THEREFOR AND USE THEREOF” (GENFLEET THERAPEUTICS (SHANGHAI) INC., priority 2021, published 2024)

Assays:
Assay type in all cases: cell-based, human
AGS cells (KRAS G12D) = experiment: Cell proliferation inhibition assay, 3D cell model (CellTiter-Glo 3D), AGS; details: AGS 3D sphere plate, 5 days incubation
Text: (§1) AsPC-1 was purchased from ATCC; catalog No: CRL-1682; AGS was purchased from ATCC; catalog No: CRL-1739; RPMI1640 was purchased from Gibco; catalog No: 11875-093 2235123; F12K was purchased from Gibco; catalog No: 21127-022; FBS was purchased from Gibco; catalog No: 10099-141C; trypsin (containing EDTA) was purchased from Gibco; catalog No: 25200-072; CellTiter Glo-3D was purchased from Progema; catalog No: G9683; 384-well sphere plates were purchased from Corning; catalog No: 3830; opaque 384-well plates with a white background were purchased from Corning; catalog No: 3570; cell counters were purchased from CHEMOMETEC; model: NC-200; microplate reader was purchased from PerkinElmer; model: Envison;
(§2) AsPC-1 is an endogenous human pancreatic cancer cell containing KRAS^G12D mutation, cultured in RPMI-1640 medium containing 10% FBS; AGS is a human gastric cancer cell line containing KRAS^G12D, cultured in F-12K medium containing 10% FBS. Cells in the logarithmic growth phase were taken, digested with trypsin (containing EDTA), collected, and counted. 800 AsPC-1 cells/well or 400 AGS cells/well, respectively, were seeded in a 384-well sphere plate and cultured overnight at 5% CO2 to establish a 3D cell model. 1000× stock solutions of compounds at a 3.16-fold concentration gradient of were prepared using DMSO, diluted 100-fold into a 10× compound stock solution using the medium described above. The 10× compound stock solution was added to each cell on 2nd day after cell seeding at a final concentration of 1× and a DMSO content of 0.1%. DMSO was used as an experimental control, and the medium was used as blank. After the addition of the compounds, the cells were incubated for 5 days. 30 μl of CellTiter-Glo work solution was added to each well, mixed well, and incubated for 30 minutes. After standing at room temperature for 30 minutes, 40 μl of the mixed solution was transferred to an opaque 384-well plate with a white clear bottom. Luminescence chemiluminescence value was read by a microplate reader, and the cell proliferation inhibition rate (IR (%)=(RLU control−RLU compound)/(RLU control−RLU blank)×100%) was calculated. The gradiently diluted concentration of the compounds and corresponding cell proliferation inhibition rate were fitted using XLFit four-parameters method, and the IC50 value was calculated.

AsPC-1 cells (KRAS G12D) = experiment: Cell proliferation inhibition assay, 3D cell model (CellTiter-Glo 3D), AsPC-1; details: AsPC-1 3D sphere plate, 5 days incubation
Text: as §1, §2

[1] = system: p-ERK in AGS cells containing the KRAS G12D mutation; experiment: Cell p-ERK assay (HTRF, Advance ERK phospho-T202/Y204 kit); details: 3 hours incubation with compound
Method: AGS was purchased from ATCC; catalog No: CRL-1739; F12K was purchased from Gibco; catalog No: 21127-022; FBS was purchased from Gibco; catalog No: 10099-141C; trypsin (containing EDTA) was purchased from Gibco; catalog No: 25200-072; DMSO was purchased from VWRAMMESCO; catalog No: 0231-500ML; 96-well cell culture plates were purchased from Corning; catalog No: 3599; opaque 96-well plates with a white background were purchased from Cisbio; catalog No: 66PL96025; Advance ERK phospho-T202/Y204 kit was purchased from Cisbio; catalog No: 64AERPEH; cell counters were purchased from CHEMOMETEC; model No: NC-200; microplate reader was purchased from PerkinElmer; model No: Envison.
AGS is an endogenous human gastric adenocarcinoma cell line containing the KRAS^G12D mutation, cultured in F12K+10% FBS medium. On the first day of the experiment, cells in the logarithmic growth phase were taken, digested with trypsin (containing EDTA), collected, and counted. Approximately 20000 cells/well were seeded in a 96-well cell culture plate and cultured overnight in an incubator with 5% CO2. 1000× stock solutions of compounds at a 3.16-fold concentration gradient were prepared using DMSO, and diluted 200-fold into a 5× compound stock solution using the medium described above. The 5× compound stock solution was added to each cell culturing well the day after cell seeding at a final concentration of 1× and a DMSO content of 0.1%. DMSO was used as an experimental control. After the compound was added and the incubation was kept for 3 hours, the medium in the culture wells was removed. 50 μl of Cell lysis solution (from Advance ERK phospho-T202/Y204 kit, the same below) was added to each well, mixed well, and incubated for 30 minutes and then 16 μl of the mixed solution was transferred to an opaque 96-well plate with a white background. In addition, 16 μl of cell lysis solution was added to a well as a blank well. After transferring, 4 μl of p-ERK HTRF antibody mixture (from Advance ERK phospho-T202/Y204 kit) was added to each well. After incubation for 4 hours, HTRF fluorescence value (RLU) was read by a microplate reader, and p-ERK level inhibition rate (IR (%)=(RLU control−RLU compound)/(RLU control−RLU blank)×100%) of the compounds was calculated. The concentration of the compounds and corresponding cell p-ERK level inhibition rate were fitted using Prism 8 four-parameters method, and the IC50 value was calculated.

SMILES | IC50 (AGS cells (KRAS G12D); Homo sapiens, 120 h) [nM] | IC50 (AsPC-1 cells (KRAS G12D); Homo sapiens, ASPC1, 120 h) [nM] | IC50 ([1]; Homo sapiens) [nM] | IC50 (AGS cells (KRAS G12D)) [nM] | IC50 (AsPC-1 cells (KRAS G12D)) [nM] | IC50 [1] [nM]
CCc1cccc2cc(O)cc(-c3cc4nc(OC[C@@]56CCCN5C[C@H](F)C6)nc5c4c(n3)OC[C@@H]3[C@@H]4CC[C@H](CN53)N4)c12 [Z2, 5-ethyl-4-((5aS,6S,9R)-12-(((2R,7aS)-2-fluorotetrahydro-1H-pyrrolizin-7a(5H)-yl)methoxy)-5a,6,7,8,9,10-hexahydro-5H-4-oxa-3,10a,11,13,14-pentaaza-6,9-methanonaphtho[1,8-ab]hepten-2-yl)naphthalen-2-ol] | 10.3 | 127 | 10.7 |  |  | 
C#Cc1c(F)ccc2cc(O)cc(-c3nc4c5c(nc(OC[C@@]67CCCN6C[C@H](F)C7)nc5c3F)N3C[C@H]5CC[C@H](N5)[C@H]3CO4)c12 [Z131-1] | 2.53 | 32.8 | 1.58 |  |  | 
CCc1cccc2cc(O)cc(-c3nc4c5c(nc(OC[C@@]67CCCN6C[C@H](F)C7)nc5c3F)N3C[C@H]5CC[C@H](N5)[C@H]3CO4)c12 [Z140-1, 5-ethyl-4-((5aS,6S,9R)-1-fluoro-12-(((2R,7aS)-2-fluorotetrahydro-1H-pyrrolizin-7a(5H)-yl)methoxy)-5a,6,7,8,9,10-hexahydro-5H-4-oxa-3,10a,11,13,14-pentaaza-6,9-methanonaphtho[1,8-ab]hepten-2-yl)naphthalen-2-ol] |  |  |  | 4 | 21.1 | 2.85
C#Cc1cccc2cccc(-c3nc4c5c(nc(OC[C@@]67CCCN6C[C@H](F)C7)nc5c3F)N3C[C@H]5CC[C@H](N5)[C@H]3CO4)c12 [Z350, (5aS,6S,9R)-2-(8-ethynaphthalen-1-yl)-1-fluoro-12-(((2R,7aS)-2-fluorotetrahydro-1H-pyrrolizin-7a(5H)-yl)methoxy)-5a,6,7,8,9,10-hexahydro-5H-4-oxo-3,10a,11,13,14-pentaaza-6,9-methanonaphtho[1,8-ab]heptene] | 181 | 203 | 47 |  |  | 
CCc1cccc2cc(O)cc(-c3cc4nc(OC[C@@]56CCCN5C[C@H](F)C6)nc5c4c(c3Cl)OC[C@@H]3[C@@H]4CC[C@H](CN53)N4)c12 [Z381, 4-((5aS,6S,9R)-3-chloro-13-((2R,7aS)-2-fluorotetrahydro-1H-pyrrolizin-7a(5H)-ylmethoxy)-5a,6,7,8,9,10-hexahydro-5H-6,9-epiminoazepino[2′,1′:3,4][1, 4]oxazepino[5,6,7-de]quinazolin-2-yl)-5-ethylnaphthalen-2-ol] |  |  | 436 |  |  | 
